Literature values in patent US20100240626A1, “ANTIEMETIC-ORAL CONTRACEPTIVE COMBINATION” (Lupin Limited, priority 2007, published 2010).

Conditions: 0.75 mg of levonorgestrel administered

C#C[C@]1(O)CC[C@H]2[C@@H]3CCC4=CC(=O)CC[C@@H]4[C@H]3CC[C@@]21CC [levonorgestrel]
patients experiencing nausea: about 23.1% | patients experiencing vomiting: 5.6%
